Test results: ChEMBL document CHEMBL1201862, “PubChem BioAssay data set” (2004)
The source made the active and inactive calls.

Key:
[1] = viability loss in HepG2 hepatoma cells – cell-based, ATP luminescence, cherry-pick, activator set 2, cytotoxicity control, dose response (AID 1053143); format: functional
[2] = viability of PTEN-deleted HCT116 cells – cell-based, HCT116 PTEN knockout, dose response (AID 1047); format: functional;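 further: HCT116 colon tumor cells with PTEN knocked out; cells exposed to compound for 60 hours before readout; potency for loss of cell viability measured by luminescence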
[3] = loss of viability in HepG2 cells – cell-based, CellTiter-Glo, cherry-picked, cytotoxicity control for Shn3 inhibitor project, dose response (AID 624134); format: functional
[4] = non-specific 3'UTR reporter inhibition in Clone20-Shn3RL – cell-based, Renilla luciferase, cherry-picked, counter-screen for Shn3 inhibitor project, dose response (AID 624133); format: functional
[5] = viability of HCT116 lacking mutant beta-catenin – cell-based, human colon tumor, dose response (AID 1045); format: functional;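 further: HCT116 colon tumor cells with beta catenin knocked out; cells exposed to compound for 60 hours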
Paired box protein Pax-8 = Paired box protein Pax-8 (Homo sapiens, UniProt Q06710); test: PAX8 transcriptional activity inhibition in RMG-I – RMG-I cells, luciferase, cherry-pick, dose response (AID 687027); format: functional, cell-based;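 further: luciferase reporter driven by Pax8 target thyroperoxidase promoter measured by SteadyGlo luminescence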
[6] = reduction of Shn3 3'UTR-driven luciferase in osteoblasts – cell-based, Clone20 osteoblasts, firefly luciferase, cherry-picked, dose response (AID 624132); format: functional;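 further: firefly luciferase luminescence from reporter carrying the Shn3 3'UTR in osteoblasts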
HeLa = test: viability loss in HeLa cells – cell-based, ATP luminescence, cherry-pick samples, cytotoxicity control, dose response (AID 687004); format: functional; conditions: Homo sapiens
[7] = DRD fibroblast viability loss – cell-based, non-viral oncogenic, luminescence, dose response (AID 1934); format: functional; conditions: Homo sapiens
BJ [8] = test: cells; format: functional, cell-based; conditions: Homo sapiens
[9] = luciferase reporter signal suppression in cells – H4 neuroglioma cells, luminescence, dose response (AID 1990); format: functional, cell-based
BJ [10] = test: BJ-TERT fibroblast viability loss – cell-based, RAS-independent, luminescence, dose response (AID 1933); format: functional; conditions: Homo sapiens
[11] = molecular target: Fructose-bisphosphate aldolase (Mycobacterium tuberculosis, UniProt P9WQA3); test: Fluorescence-based biochemical high throughput dose response assay for inhibitors of the fructose-bisphosphate aldolase (FBA) of M. tuberculosis.; format: functional
Protein RecA = molecular target: T1, Protein RecA (Mycobacterium tuberculosis, UniProt P9WHJ3); test: Fluorescence Cell-Free Homogeneous Dose Retest to Identify Inhibitors of RecA-Intein Splicing Activity. [Related pubchem assays (depositor defined):AID2097, AID2223, AID489010, AID492950]; format: functional
T1 sequence (P9WHJ3 whole entry): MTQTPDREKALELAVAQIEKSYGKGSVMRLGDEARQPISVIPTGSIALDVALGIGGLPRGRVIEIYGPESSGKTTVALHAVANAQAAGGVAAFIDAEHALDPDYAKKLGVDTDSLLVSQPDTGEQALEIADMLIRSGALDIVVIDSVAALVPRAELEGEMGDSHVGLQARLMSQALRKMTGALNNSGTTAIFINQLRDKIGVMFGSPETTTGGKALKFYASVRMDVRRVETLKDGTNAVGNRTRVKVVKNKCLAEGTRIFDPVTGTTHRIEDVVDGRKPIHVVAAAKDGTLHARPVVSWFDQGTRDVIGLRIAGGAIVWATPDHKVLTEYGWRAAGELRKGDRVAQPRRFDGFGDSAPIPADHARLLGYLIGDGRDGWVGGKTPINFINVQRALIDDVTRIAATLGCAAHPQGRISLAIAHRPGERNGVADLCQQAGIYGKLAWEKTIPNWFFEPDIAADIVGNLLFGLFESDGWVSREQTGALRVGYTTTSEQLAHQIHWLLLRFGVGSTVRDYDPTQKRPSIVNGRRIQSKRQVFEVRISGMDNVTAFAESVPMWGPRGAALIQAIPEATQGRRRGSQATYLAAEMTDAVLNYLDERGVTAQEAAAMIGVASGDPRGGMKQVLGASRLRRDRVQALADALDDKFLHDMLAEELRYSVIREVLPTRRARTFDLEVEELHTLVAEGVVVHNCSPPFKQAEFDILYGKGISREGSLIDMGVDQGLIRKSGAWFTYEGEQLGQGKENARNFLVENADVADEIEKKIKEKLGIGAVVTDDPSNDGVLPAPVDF

BJ [12] = test: BJ-TERT-LT-ST fibroblast viability loss – cell-based, RAS-independent, luminescence, dose response (AID 1935); format: functional; conditions: Homo sapiens;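 further: BJ fibroblasts immortalized with TERT plus LT and ST oncogenes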
INS1 = test: INS-1E survival protection against cytokine death – cell-based, luminescence, retest, dose response (AID 449756); format: functional; conditions: Rattus norvegicus;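 further: cell death triggered by IL-1 beta plus TNF-alpha plus IFN-gamma mixture; protective hits raise ATP signal compared with cytokine alone wells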
Streptococcus = test: GAS UMAA2166 growth inhibition – luminescence, BacTiterGlo, counter-screen for streptokinase expression inhibitor project, dose response (AID 1915); format: functional, organism-based;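 further: potency for reduction of bacterial viability or growth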
[13] = molecular target: T2, Replicative DNA helicase DnaB (Mycobacterium tuberculosis, UniProt P9WMR3); test: DnaB intein splicing inhibitors, dose response, biochemical, cell-free fluorescence (AID 449749); format: functional
T2 sequence (P9WMR3 whole entry): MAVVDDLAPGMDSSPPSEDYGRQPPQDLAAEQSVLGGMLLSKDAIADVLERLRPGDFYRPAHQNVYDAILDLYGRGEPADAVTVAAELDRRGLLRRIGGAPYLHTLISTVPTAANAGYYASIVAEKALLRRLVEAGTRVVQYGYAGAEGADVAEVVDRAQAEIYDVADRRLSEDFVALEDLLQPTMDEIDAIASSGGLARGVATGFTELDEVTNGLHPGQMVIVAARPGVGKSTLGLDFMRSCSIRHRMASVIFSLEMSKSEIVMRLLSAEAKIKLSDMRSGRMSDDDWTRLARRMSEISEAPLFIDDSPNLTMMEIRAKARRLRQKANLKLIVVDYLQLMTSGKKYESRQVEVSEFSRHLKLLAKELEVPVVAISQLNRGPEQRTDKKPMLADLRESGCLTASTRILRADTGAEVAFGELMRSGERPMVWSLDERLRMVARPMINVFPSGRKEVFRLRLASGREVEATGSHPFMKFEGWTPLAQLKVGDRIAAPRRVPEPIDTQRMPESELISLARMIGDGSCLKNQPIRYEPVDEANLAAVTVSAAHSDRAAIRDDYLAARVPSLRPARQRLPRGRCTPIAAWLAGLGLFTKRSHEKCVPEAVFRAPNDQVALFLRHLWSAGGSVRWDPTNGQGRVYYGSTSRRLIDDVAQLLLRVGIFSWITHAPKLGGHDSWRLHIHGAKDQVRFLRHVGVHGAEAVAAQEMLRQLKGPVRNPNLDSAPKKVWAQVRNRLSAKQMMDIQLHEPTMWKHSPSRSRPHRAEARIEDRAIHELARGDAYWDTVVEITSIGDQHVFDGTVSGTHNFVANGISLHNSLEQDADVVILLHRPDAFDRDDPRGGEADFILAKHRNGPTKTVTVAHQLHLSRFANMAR

[14] = alpha-synuclein stem-loop luciferase translation blockers – H4 neuroglioma cells, luminescence, confirmation (AID 1988); format: functional, cell-based
Streptokinase A = molecular target: T3, Streptokinase A (Streptococcus pyogenes serotype M1, UniProt P10520); test: viability-normalized secreted streptokinase activity reduction – plasminogen activation absorbance, OD405, dose response (AID 1914); format: functional, Streptococcus pyogenes M1 GAS;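 further: secreted streptokinase activity via plasminogen activation per viability signal from cell pellet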
T3 sequence (P10520 whole entry): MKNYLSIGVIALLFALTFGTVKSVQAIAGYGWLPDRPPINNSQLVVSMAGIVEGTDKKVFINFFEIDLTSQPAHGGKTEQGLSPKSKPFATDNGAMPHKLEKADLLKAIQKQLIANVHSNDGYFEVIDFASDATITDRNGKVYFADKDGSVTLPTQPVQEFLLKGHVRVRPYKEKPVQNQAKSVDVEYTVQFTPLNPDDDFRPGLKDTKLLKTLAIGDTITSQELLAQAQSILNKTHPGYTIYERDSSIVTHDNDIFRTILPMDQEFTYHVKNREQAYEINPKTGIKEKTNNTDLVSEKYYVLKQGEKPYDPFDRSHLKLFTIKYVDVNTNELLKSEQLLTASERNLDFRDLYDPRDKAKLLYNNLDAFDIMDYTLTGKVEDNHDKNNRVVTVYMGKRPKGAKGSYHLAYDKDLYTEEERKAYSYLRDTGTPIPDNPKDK

[15] = test system: Streptococcus sp. 'group A'; test: Streptococcus pyogenes SK(-)GAS viability under kanamycin – luminescence, BacTiterGlo, confirmation, counter-screen for streptokinase expression inhibitor project, dose response (AID 1900); format: functional, organism-based
[16] = Luminescence Cell-Based Dose Response HTS to Identify Inhibitors of 5'UTR Stem-Loop Driven Prion Protein mRNA Translation in H4 Neuroglioblastoma Cells. [Related pubchem assays: 1827 (Project Summary), 1813 (Primary HTS)]; format: functional
[17] = blockade of melanocortin 4 receptor signaling – cell-based, plate reader, cherry pick, counter-screen for LGR2 antagonist project, dose response (AID 743444); format: functional;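 further: transfected HEK 293 cells stimulated with alpha-MSH peptide; potency of inhibitors of the alpha-MSH evoked signal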
[18] = toxicity toward HepG2 liver cells – cell-based, plate reader, cherry-pick, antagonist series, cytotoxicity control, dose response (AID 743416); format: functional
[19] = molecular target: T4, Oxysterols receptor LXR-beta (Homo sapiens, UniProt P55055); format: functional, cell-based;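 further: agonist activity at LXR measured by a cell-based luminescence readout across a dose range, run as a counterscreen for daf-12 agonists; HEK293 cells with Gal4-LXR fusion and GAL4-driven luciferase reporter; potency for activation of Gal4-LXR reporter so compounds are agonists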
T4 sequence (P55055 whole entry): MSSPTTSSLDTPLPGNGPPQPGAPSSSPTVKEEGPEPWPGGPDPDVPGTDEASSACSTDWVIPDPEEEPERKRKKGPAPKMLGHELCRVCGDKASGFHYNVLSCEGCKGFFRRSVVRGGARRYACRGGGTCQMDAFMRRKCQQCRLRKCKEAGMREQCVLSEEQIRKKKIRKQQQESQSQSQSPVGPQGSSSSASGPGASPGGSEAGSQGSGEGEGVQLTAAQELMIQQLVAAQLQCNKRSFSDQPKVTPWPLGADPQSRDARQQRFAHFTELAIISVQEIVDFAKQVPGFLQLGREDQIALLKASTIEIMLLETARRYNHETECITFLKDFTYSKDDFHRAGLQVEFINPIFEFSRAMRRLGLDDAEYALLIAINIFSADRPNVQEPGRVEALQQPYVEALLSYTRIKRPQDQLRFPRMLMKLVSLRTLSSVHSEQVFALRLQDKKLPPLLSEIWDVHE

[20] = blockers of bursicon-stimulated LGR2 cAMP reporter – cell-based, HEK293, CRE-luciferase reporter, cherry pick, set 2, dose response (AID 743343); format: functional;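 further: transfected cells were stimulated with diluted bursicon conditioned medium after compound addition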
[21] = A549 cell cytotoxicity, dose response, cytotoxicity control, plate reader, cherry-pick, antagonist series (AID 743412); format: functional, cell-based
Nonstructural protein 1 = Nonstructural protein 1 (Influenza A virus, UniProt Q194T2); format: functional, Influenza A virus (A/California/07/2009(H1N1))
[22] = HGIII-sPLA2 enzyme inhibition potency – biochemical, QFRET, IC50, dose response (AID 743457);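 further: green fluorescence rise as the enzyme cleaves BODIPY PC-A2 in liposomes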
[23] = molecular target: Disintegrin and metalloproteinase domain-containing protein 17 (Homo sapiens, UniProt P78536); test: exosite inhibitors of ADAM17, dose response, biochemical (AID 743260)
[24] = inhibition of ADAM10 peptide cleavage – biochemical, FRET peptide substrate, recombinant human ADAM10, selectivity assay for ADAM17 exosite inhibitor project, dose response (AID 743259);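 further: ADAM10 enzyme cleaving a FRET peptide substrate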

Sequence of Fructose-bisphosphate aldolase (P9WQA3 whole entry): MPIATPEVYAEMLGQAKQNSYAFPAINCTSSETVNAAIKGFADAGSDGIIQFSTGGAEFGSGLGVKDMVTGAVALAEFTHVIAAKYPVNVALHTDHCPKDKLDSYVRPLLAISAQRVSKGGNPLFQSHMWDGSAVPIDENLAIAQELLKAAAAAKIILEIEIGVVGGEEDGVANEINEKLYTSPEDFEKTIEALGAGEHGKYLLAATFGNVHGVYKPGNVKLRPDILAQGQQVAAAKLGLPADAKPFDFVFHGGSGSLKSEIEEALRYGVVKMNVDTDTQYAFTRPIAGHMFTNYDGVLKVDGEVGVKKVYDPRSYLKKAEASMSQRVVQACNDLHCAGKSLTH
Sequence of Nonstructural protein 1 (Q194T2 whole entry): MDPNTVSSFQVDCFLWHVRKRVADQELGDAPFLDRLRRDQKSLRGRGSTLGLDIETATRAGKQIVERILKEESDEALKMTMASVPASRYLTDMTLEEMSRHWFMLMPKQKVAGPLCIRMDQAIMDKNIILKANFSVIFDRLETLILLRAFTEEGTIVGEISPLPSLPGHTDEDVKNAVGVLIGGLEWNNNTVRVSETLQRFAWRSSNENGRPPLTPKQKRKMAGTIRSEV
Sequence of Disintegrin and metalloproteinase domain-containing protein 17 (P78536 whole entry, the tested form may be a part): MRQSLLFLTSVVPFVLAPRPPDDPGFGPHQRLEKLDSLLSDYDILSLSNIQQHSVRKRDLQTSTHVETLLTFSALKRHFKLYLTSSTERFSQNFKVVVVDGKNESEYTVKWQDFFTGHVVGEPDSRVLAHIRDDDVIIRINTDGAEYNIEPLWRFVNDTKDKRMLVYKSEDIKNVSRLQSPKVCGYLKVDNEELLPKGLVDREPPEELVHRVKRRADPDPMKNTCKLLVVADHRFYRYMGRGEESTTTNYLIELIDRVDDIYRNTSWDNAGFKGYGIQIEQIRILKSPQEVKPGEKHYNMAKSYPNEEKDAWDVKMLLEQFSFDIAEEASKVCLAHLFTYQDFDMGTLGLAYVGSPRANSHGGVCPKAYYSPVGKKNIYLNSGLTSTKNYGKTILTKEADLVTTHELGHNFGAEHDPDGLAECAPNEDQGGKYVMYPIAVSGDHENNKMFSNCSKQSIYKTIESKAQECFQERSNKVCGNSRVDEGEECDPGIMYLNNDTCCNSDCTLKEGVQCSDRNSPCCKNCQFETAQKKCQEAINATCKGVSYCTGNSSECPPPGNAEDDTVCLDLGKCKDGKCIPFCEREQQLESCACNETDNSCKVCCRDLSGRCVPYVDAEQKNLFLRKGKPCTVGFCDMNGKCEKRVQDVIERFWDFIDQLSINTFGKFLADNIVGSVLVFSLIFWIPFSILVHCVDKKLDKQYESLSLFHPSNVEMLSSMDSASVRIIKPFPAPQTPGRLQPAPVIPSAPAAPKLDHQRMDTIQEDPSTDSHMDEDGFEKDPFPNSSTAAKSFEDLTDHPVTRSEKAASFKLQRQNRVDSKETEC
Sequence of Paired box protein Pax-8 (Q06710 whole entry): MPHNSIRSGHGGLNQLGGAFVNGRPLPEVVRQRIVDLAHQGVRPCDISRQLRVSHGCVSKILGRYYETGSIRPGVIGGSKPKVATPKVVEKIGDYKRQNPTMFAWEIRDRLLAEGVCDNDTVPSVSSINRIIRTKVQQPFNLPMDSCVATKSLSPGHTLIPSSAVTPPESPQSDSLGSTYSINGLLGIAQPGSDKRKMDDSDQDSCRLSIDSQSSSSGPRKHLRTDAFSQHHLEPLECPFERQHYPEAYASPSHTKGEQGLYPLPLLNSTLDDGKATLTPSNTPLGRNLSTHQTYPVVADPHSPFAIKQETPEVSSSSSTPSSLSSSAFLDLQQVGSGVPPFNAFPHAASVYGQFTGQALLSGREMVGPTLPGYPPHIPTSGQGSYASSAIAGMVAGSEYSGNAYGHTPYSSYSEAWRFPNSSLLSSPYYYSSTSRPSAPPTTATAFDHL

SMILES: Cc1cccc(/C=C(\c2nc3ccccc3[nH]2)S(=O)(=O)c2ccccc2)c1
- AC50 [1]: 11.1 µM (active)
- EC50 [2]: 2.33 µM (active)
- AC50 [3]: 24.5 µM (active)
- AC50 [4]: 7.04 µM (active)
- EC50 [5]: 2.37 µM (active)
- AC50 (Paired box protein Pax-8): 4.1 µM (active)
- AC50 [6]: 4.5 µM (active)

SMILES: CC(=O)c1sc(NC(=O)c2cc(-c3ccccc3)nn2-c2ccccc2)nc1C
- AC50 (HeLa): > 52 µM (inactive)

SMILES: Cc1ccc(-c2cc(-c3ccc(C)cc3)[n+](-c3ccc(C(=O)[O-])cc3)c(-c3ccc(C)cc3)c2)cc1
- EC50 [7]: 8.62 µM (inconclusive)
- EC50 (BJ [8]): 13.6 µM (active)
- EC50 [9]: > 120 µM (not active)
- EC50 (BJ [10]): 2.76 µM (active)
- IC50 [11]: 1.86 µM (active)
- EC50 (Protein RecA): 40.5 µM (active)
- EC50 (BJ [12]): 14.9 µM (inconclusive)
- AC50 (INS1): 6.34 µM (active)
- EC50 (Streptococcus): > 150 µM (not active)
- AC50 [13]: 38.2 µM (active)
- EC50 [14]: > 120 µM (not active)
- EC50 (Streptokinase A): > 150 µM (not active)
- EC50 [15]: 12.6 µM (active)
- EC50 [16]: 63.5 µM (active)

SMILES: Cc1ccc(-c2nc(-c3ccncc3)no2)cc1C
- AC50 [17]: 25.8 µM (active)
- AC50 [18]: > 52 µM (inactive)
- EC50 [19]: > 67.5 µM (inactive)
- AC50 [20]: 17.8 µM (active)

SMILES: O=C(Nc1ccc(NC(=O)c2ccco2)nc1)c1ccco1
- AC50 [17]: 8.62 µM (active)
- AC50 [21]: > 52 µM (inactive)
- AC50 [20]: 6.67 µM (active)

SMILES: CCN1C(=O)/C(=C2/C=Cc3ccccc3N2CC)SC1=S
- IC50 (Nonstructural protein 1): 9.45 µM (active)
- IC50 [22]: 94.1 µM (inactive)

SMILES: O=C1CC(Nc2ccc3ccccc3c2)C(=O)N1Cc1ccccc1 (stereo not given)
- IC50 [23]: > 69.5 µM (inactive)
- IC50 [24]: > 69.5 µM (inactive)

SMILES: COC(=O)c1c(NC(C)=O)sc(C(=O)Nc2ccccc2F)c1C
- AC50 [1]: 26 µM (active)

SMILES: c1ccc2c(c1)c1c3n2CCNC3CCC1 (stereo not given)
- IC50 [22]: > 122 µM (inactive)
